Data: PubChem BioAssay AID1963438 (Molecular Pharmacology Branch, DTP, NCI, 2024)

System: NCI-H510 multicellular tumor spheroid growth, % test/control
Test: Anticancer human tumor NCI-H510 cell line growth inhibition [Asc];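 also: spheroids exposed to agents for 7 days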;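 as to viability, T/C: 100% = DMSO vehicle control wells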
Details: for IC50: curve of first compound; for viability, T/C: stronger effect = lower value
In short: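 Spheroid model: tumor line + HUVEC + hMSC. Single agents and combinations; top conc. at/near clinical Cmax (10 microM if undetermined), half-log dilutions. DMSO stocks at 800-fold test concentration.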

`COc1c(OCCCN2CCOCC2)ccc2c3n(c(=NC(=O)c4cnc(N)nc4)nc12)CCN3` + CCN1C(C(=O)NC23CCC(C(=O)O)(CC2)CC3)C(c2cccc(Cl)c2F)C2(C(=O)Nc3cc(Cl)ccc32)C12CCCCC2 showed an IC50 (second compound 0.03 µM) greater than 1000 nM, an IC50 (second compound 0.0949 µM) greater than 1000 nM and an IC50 (second compound 0.3 µM) greater than 1000 nM. For the same compound, the IC50 (second compound 0.949 µM) was greater than 1000 nM, the IC50 (second compound 3 µM) was greater than 1000 nM and the viability, T/C (second compound 0.03 µM, first compound 0.00316 µM) was 94.2%. The viability, T/C (second compound 0.03 µM, first compound 0.01 µM) was 112%, the viability, T/C (second compound 0.03 µM, first compound 0.0316 µM) was 96.4% and the viability, T/C (second compound 0.03 µM, first compound 0.1 µM) was 93.6%. The viability, T/C (second compound 0.03 µM, first compound 0.316 µM) was 70%, the viability, T/C (second compound 0.03 µM, first compound 1 µM) was 58.7% and the viability, T/C (second compound 0.0949 µM, first compound 0.00316 µM) was 94.3%. For the same compound, the viability, T/C (second compound 0.0949 µM, first compound 0.01 µM) was 91%, the viability, T/C (second compound 0.0949 µM, first compound 0.0316 µM) was 98.4% and the viability, T/C (second compound 0.0949 µM, first compound 0.1 µM) was 99.3%. It also gave a viability, T/C (second compound 0.0949 µM, first compound 0.316 µM) of 92.5%, a viability, T/C (second compound 0.0949 µM, first compound 1 µM) of 65.6% and a viability, T/C (second compound 0.3 µM, first compound 0.00316 µM) of 92.3%. It also gave a viability, T/C (second compound 0.3 µM, first compound 0.01 µM) of 101%, a viability, T/C (second compound 0.3 µM, first compound 0.0316 µM) of 105% and a viability, T/C (second compound 0.3 µM, first compound 0.1 µM) of 105%. The viability, T/C (second compound 0.3 µM, first compound 0.316 µM) was 95.6%, the viability, T/C (second compound 0.3 µM, first compound 1 µM) was 51.2% and the viability, T/C (second compound 0.949 µM, first compound 0.00316 µM) was 80.6%. For the same compound, the viability, T/C (second compound 0.949 µM, first compound 0.01 µM) was 99.5%, the viability, T/C (second compound 0.949 µM, first compound 0.0316 µM) was 114% and the viability, T/C (second compound 0.949 µM, first compound 0.1 µM) was 104%. The viability, T/C (second compound 0.949 µM, first compound 0.316 µM) was 62%, the viability, T/C (second compound 0.949 µM, first compound 1 µM) was 80.4% and the viability, T/C (second compound 3 µM, first compound 0.00316 µM) was 112%. The viability, T/C (second compound 3 µM, first compound 0.01 µM) was 105%, the viability, T/C (second compound 3 µM, first compound 0.0316 µM) was 73.9% and the viability, T/C (second compound 3 µM, first compound 0.1 µM) was 85%. The viability, T/C (second compound 3 µM, first compound 0.316 µM) was 86.5% and the viability, T/C (second compound 3 µM, first compound 1 µM) was 83.3%.
